From PubChem BioAssay (NCI) come the findings set out here.

The structures appear in SMILES notation.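 Growth conditions: 96-well plates. Treatment: test compound, 48 hours, 5 concentrations. Analysis: linear interpolation between bracketing concentrations; unreached endpoints set to highest concentration. The concentration for full growth arrest is given as TGI.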 Bounds are passed on as bounds.

Some test systems named below: OVCAR-4 ovarian; HT29 colon; HS 578T breast; ACHN renal; NCI-H23 lung; LOX IMVI melanoma; HCT-15 colon; UACC-257 melanoma; MOLT-4 leukemia; SNB-19 CNS; EKVX NSCLC; SR leukemia; NCI-H522 lung; K-562 leukemia; HOP-92 NSCLC.
Common to all, as to assay: NCI tumour cell line growth inhibition, 48 h

For the compound `O=C1NC(=O)[C@@H](OCC2CCCCC2)[C@@H]2OCC3OC(C(O)C3O)C12` (stereo not given in full), the TGI with OVCAR-4 ovarian, with HT29 colon, with HS 578T breast, in the test on ACHN renal, in the test on NCI-H23 lung and in the test on LOX IMVI melanoma was over 100 µM in each case. The TGI in the test with HCT-15 colon, with UACC-257 melanoma, in the test with MOLT-4 leukemia, with SNB-19 CNS, in the test on EKVX NSCLC and in the test on SR leukemia was over 100 µM in each case.

As to `C=C1C(=O)CCC1C(=O)O` (stereo not given), the TGI in the test on OVCAR-4 ovarian, in the test with NCI-H522 lung, with HT29 colon, with HS 578T breast, in the test on ACHN renal and in the test on K-562 leukemia was over 100 µM throughout. The TGI with NCI-H23 lung, with LOX IMVI melanoma, in the test with HCT-15 colon, with UACC-257 melanoma, in the test with MOLT-4 leukemia and in the test with SNB-19 CNS was over 100 µM throughout. In addition, the TGI with EKVX NSCLC and with SR leukemia was over 100 µM throughout.

In the case of `O=S(Nc1ccccc1)c1ccc(-c2ccccc2)cc1` (stereo not given), the TGI with OVCAR-4 ovarian, in the test with NCI-H522 lung, in the test with HT29 colon, with HS 578T breast, with ACHN renal and in the test with K-562 leukemia was over 100 µM in each case. In addition, the TGI in the test with NCI-H23 lung, in the test on LOX IMVI melanoma, in the test on HCT-15 colon, in the test with UACC-257 melanoma, with MOLT-4 leukemia and with SNB-19 CNS was over 100 µM each time. Moreover, the TGI with EKVX NSCLC and in the test on SR leukemia was over 100 µM each time.

In the case of `COC(=O)c1ccc(/C=C2\Cc3ccccc3C2=O)cc1`, the TGI with OVCAR-4 ovarian, in the test on NCI-H522 lung, in the test on HT29 colon, in the test with HS 578T breast, in the test with ACHN renal and with K-562 leukemia was over 100 µM each time. Besides, the TGI with NCI-H23 lung, in the test on HCT-15 colon, in the test with UACC-257 melanoma, with MOLT-4 leukemia, in the test on SNB-19 CNS and in the test on EKVX NSCLC was over 100 µM in each case. Besides, the TGI in the test with SR leukemia was over 100 µM.

For `CC(C)(O)/C=C\P(C)(=O)c1ccccc1` (stereo not given), the TGI in the test on HOP-92 NSCLC, in the test with OVCAR-4 ovarian, with NCI-H522 lung, with HT29 colon, with HS 578T breast and in the test with ACHN renal was over 100 µM throughout. In addition, the TGI in the test with K-562 leukemia, in the test with NCI-H23 lung, with LOX IMVI melanoma, in the test with HCT-15 colon, in the test on UACC-257 melanoma and with SNB-19 CNS was over 100 µM each time. Besides, the TGI in the test with EKVX NSCLC and in the test on SR leukemia was over 100 µM throughout.

`COc1cc(OC)cc(-n2c(N)c(-c3nc4ccccc4s3)c3ccc([N+](=O)[O-])cc3c2=O)c1`: the TGI in the test with HOP-92 NSCLC is 15.8 µM; with OVCAR-4 ovarian, 78.9 µM; with NCI-H522 lung, over 100 µM; in the test with HT29 colon, over 100 µM; with HS 578T breast it was over 100 µM; with ACHN renal it was 41.7 µM. For the same compound, the TGI in the test with K-562 leukemia, in the test with NCI-H23 lung, with LOX IMVI melanoma, in the test with HCT-15 colon, in the test with UACC-257 melanoma and with SNB-19 CNS was over 100 µM each time. In the test on SR leukemia, this compound returned a TGI of 89.7 µM.

As to `CC(C)(C)OC(=O)NNC(=O)C1Cc2ccccc2OC1=O` (stereo not given), the TGI with NCI-H522 lung, in the test on HT29 colon, in the test with HS 578T breast, with ACHN renal, in the test on K-562 leukemia and with NCI-H23 lung was over 100 µM in each case. Besides, the TGI in the test on HCT-15 colon, in the test on UACC-257 melanoma, in the test on MOLT-4 leukemia, in the test with SNB-19 CNS, in the test on EKVX NSCLC and in the test with SR leukemia was over 100 µM throughout.

Take `CN(C(=O)[C@@H](NC(=O)OC(C)(C)C)c1ccccc1)[C@H]1CCCC[C@@H]1N1CCCC1`: the TGI with OVCAR-4 ovarian, in the test with NCI-H522 lung, with HT29 colon, with HS 578T breast, with ACHN renal and in the test with K-562 leukemia was over 100 µM throughout. In addition, the TGI in the test on NCI-H23 lung, with HCT-15 colon, in the test on UACC-257 melanoma, in the test on MOLT-4 leukemia, with SNB-19 CNS and with EKVX NSCLC was over 100 µM each time. The compound further came in with a TGI in the test with SR leukemia of over 100 µM.

For the compound `Cc1cc(Cl)ccc1NC(=O)C(=O)Cc1ccc([N+](=O)[O-])c([N+](=O)[O-])c1CC(=O)C(=O)Nc1ccc(Cl)cc1C`, the TGI in the test on HOP-92 NSCLC, in the test with OVCAR-4 ovarian, with NCI-H522 lung, in the test on HT29 colon, in the test on ACHN renal and in the test with K-562 leukemia was over 100 µM in each case. Besides, the TGI with NCI-H23 lung, in the test with LOX IMVI melanoma, in the test on HCT-15 colon, in the test on UACC-257 melanoma, in the test with MOLT-4 leukemia and in the test with SNB-19 CNS was over 100 µM throughout. Further, the TGI in the test with EKVX NSCLC and in the test on SR leukemia was over 100 µM in each case.

`CN/C=C(/c1ccc(OC)cc1)C(O)c1ccc(OC)c(OC)c1` (stereo not given): the TGI in the test on HOP-92 NSCLC, with OVCAR-4 ovarian, with NCI-H522 lung, with HT29 colon, with ACHN renal and with K-562 leukemia was over 100 µM each time. Besides, the TGI in the test with NCI-H23 lung, in the test with LOX IMVI melanoma, with HCT-15 colon, in the test on UACC-257 melanoma, in the test on MOLT-4 leukemia and in the test on SNB-19 CNS was over 100 µM throughout. In addition, the TGI in the test on EKVX NSCLC and in the test with SR leukemia was over 100 µM each time.

Regarding `CN(C)CCn1c(=O)oc2cc(C(=O)CN3CCOCC3)ccc21`, the TGI in the test with HT29 colon, in the test on HS 578T breast, in the test on ACHN renal, in the test on K-562 leukemia, in the test on NCI-H23 lung and with LOX IMVI melanoma was over 100 µM each time. Moreover, the TGI in the test with HCT-15 colon, in the test on UACC-257 melanoma, with MOLT-4 leukemia, in the test with SNB-19 CNS, in the test with EKVX NSCLC and in the test on SR leukemia was over 100 µM each time.
